# Several values for one entry are separate records, joined by “and”; a condition that tells them apart may be missing. Equal values may be shown once.
# What was measured:
# nAChR α4/β2 [1] = molecular target: T1, nAChR α4/β2 (Homo sapiens, UniProt P17787+P43681); format: cell-based; conditions: 100 μM Ach + 0.3 μM epibatidine; not concentration-dependent, IC50 not determinable
# T1 construct: host or cells: HEK293 cells, transient transfection
# Procedure: (§2) The following three (3) channels were evaluated: • 1. nAChR α3/β4 (encoded by the human CHRNA3 and CHRNB4 gene and stably expressed in CHO cells); • 2. nAChR α4/β2 (CHRNA4 and CHRNB2 gene and transiently expressed in HEK293 cells); and • 3. nAChR α7 (encoded by the human nicotinic α7 gene coexpressed in CHO cells with the chaperone RIC-3 encoded by the human RIC3 gene).
# (§3) The ability of each test article to act as an agonist, a positive allosteric modulator or antagonist of three nAChR receptor channels was evaluated in the presence of 0.1 atropine. Both test articles were evaluated for responses on each nAChR channel at eight (8) concentrations: 0.3, 1, 3, 10, 30, 100, 300, and 1000 μM (n=4 for each concentration).
# HEK293 or CHO cells were transiently or stably transfected with the appropriate human ion channel cDNAs. Stable transfectants were selected by coexpression with the antibiotic-resistance gene(s) incorporated into the expression plasmid(s). […]
# For FLIPR TETRA™ assay, cells were plated in 384-well black wall, flat clear bottom microtiter plates (Type: BD Biocoat Poly-D-Lysine Multiwell Cell Culture Plate) at 20,000 to 30,000 cells per well (384-well plate). Cells were incubated at 37° C. overnight or until the cells reached a sufficient density in the wells (near confluent monolayer) to use in fluorescence assays. […]
# nAChR α4/β2 [2] = molecular target: T1, nAChR α4/β2; test: nAChR α4/β2 channel agonist assay (FLIPR membrane potential); format: cell-based; conditions: 0.3-1000 μM
# Procedure: as §2, §3
# HEK293 or CHO cells were transiently or stably transfected with the appropriate human ion channel cDNAs. Stable transfectants were selected by coexpression with the antibiotic-resistance gene(s) incorporated into the expression plasmid(s). Selection pressure was maintained by including selection antibiotics in the culture medium. HEK293 cells were cultured in Dulbecco's Modified Eagle Medium/Nutrient Mixture F-12 (D-MEM/F-12) supplemented with 10% fetal bovine serum, 100 U/mL penicillin G sodium, 100 g/mL streptomycin sulfate and appropriate selection antibiotics. CHO cells were cultured in Ham's F-12 supplemented with 10% fetal bovine serum, 100 U/mL penicillin G sodium, 100 g/mL streptomycin sulfate and appropriate selection antibiotics.
# For FLIPR TETRA™ assay, cells were plated in 384-well black wall, flat clear bottom microtiter plates (Type: BD Biocoat Poly-D-Lysine Multiwell Cell Culture Plate) at 20,000 to 30,000 cells per well (384-well plate). Cells were incubated at 37° C. overnight or until the cells reached a sufficient density in the wells (near confluent monolayer) to use in fluorescence assays. For α4β2 assay, cells were incubated at 27° C. for at least 7 hours before use.
# Experiments were performed with either the FLIPR calcium sensitive dye kit (Fluo-8, ABDbioquest, for nAChR α3/β4 and nAChR α7) or FLIPR membrane potential kit (Molecular Devices, for nAChR α4/β2) according to the manufacturer's instructions. Briefly, cells were incubated with 201 dye for 30 min at 37° C. After dye loading period, for the agonist assay, 5 μl of the test, vehicle, or control articles at concentration of 5 times of final concentration were applied to the cells without stimulation. For the positive allosteric modulation (PAM) and antagonist assay, after test article application, the cells were stimulated with either low dose (for PAM) or high dose (for antagonist) of Ach.
# Concentration-response data was fitted to a Hill equation of the following form:
# where Base is the response at low concentrations of test article, Max is the maximum response at high concentrations, xhalf is the EC50 or IC50, the concentration of test article producing either half-maximal activation or inhibition, and rate is the Hill coefficient. Nonlinear least squares fits were made assuming a simple one-to-one binding model.
# The ability of each test article to act as an agonist of the nAChR carried out in the absence of the positive control agonist. The signal elicited in the presence of the positive control agonist (30 μM Ach) was set to 100% and the signal from the vehicle control (HBPS) was set to 0%. Values were considered significant (bold font) if the test article mean was three or more standard deviations above from the vehicle control mean.
# Hematology, day 15 = format: in vivo, Sprague-Dawley rats
# Text: (§1) On day 15, urine was collected on all surviving animals for urinalysis. The animals were euthanized and bled via cardiac puncture. Blood was collected for hematology, clinical chemistry, and coagulation analysis. Tissues were collected, weighed, and stored in 10% neutral-buffered formalin for possible future analysis.
# [3] = Necropsy observations and organ weights, day 15; format: in vivo, Sprague-Dawley rats; conditions: individual animals
# Procedure: Body weight and food consumption was measured daily for 14 days. On day 15, urine was collected on all surviving animals. The animals were euthanized and bled via cardiac puncture, and blood was collected for analysis. Tissues were collected, weighed, evaluated for gross abnormalities, and stored in 10% neutral-buffered formalin.
# as §1
# [4] = anatabine 0.75 mg/kg, individual animals C1-C10 (M, F)
# [5] = Group B, 0.1 mg/kg, females, 0.1 mg/kg
# [6] = Group B, 0.1 mg/kg, males, 0.1 mg/kg
# [7] = Group C, 0.75 mg/kg, females, 0.75 mg/kg
# T1 sequence (P17787 26-502): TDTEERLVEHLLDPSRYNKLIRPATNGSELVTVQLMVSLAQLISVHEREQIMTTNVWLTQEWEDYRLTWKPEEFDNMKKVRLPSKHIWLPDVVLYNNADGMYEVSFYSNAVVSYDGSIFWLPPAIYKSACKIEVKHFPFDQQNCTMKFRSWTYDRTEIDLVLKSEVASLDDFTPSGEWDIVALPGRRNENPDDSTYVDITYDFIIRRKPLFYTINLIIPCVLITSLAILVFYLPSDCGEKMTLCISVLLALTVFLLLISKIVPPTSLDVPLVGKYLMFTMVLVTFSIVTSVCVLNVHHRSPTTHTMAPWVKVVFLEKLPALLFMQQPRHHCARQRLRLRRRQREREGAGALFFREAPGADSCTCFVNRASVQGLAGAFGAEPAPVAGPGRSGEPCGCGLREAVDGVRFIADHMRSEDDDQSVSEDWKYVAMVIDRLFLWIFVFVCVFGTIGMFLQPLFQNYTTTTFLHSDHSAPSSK
# T1 sequence (P43681 29-627): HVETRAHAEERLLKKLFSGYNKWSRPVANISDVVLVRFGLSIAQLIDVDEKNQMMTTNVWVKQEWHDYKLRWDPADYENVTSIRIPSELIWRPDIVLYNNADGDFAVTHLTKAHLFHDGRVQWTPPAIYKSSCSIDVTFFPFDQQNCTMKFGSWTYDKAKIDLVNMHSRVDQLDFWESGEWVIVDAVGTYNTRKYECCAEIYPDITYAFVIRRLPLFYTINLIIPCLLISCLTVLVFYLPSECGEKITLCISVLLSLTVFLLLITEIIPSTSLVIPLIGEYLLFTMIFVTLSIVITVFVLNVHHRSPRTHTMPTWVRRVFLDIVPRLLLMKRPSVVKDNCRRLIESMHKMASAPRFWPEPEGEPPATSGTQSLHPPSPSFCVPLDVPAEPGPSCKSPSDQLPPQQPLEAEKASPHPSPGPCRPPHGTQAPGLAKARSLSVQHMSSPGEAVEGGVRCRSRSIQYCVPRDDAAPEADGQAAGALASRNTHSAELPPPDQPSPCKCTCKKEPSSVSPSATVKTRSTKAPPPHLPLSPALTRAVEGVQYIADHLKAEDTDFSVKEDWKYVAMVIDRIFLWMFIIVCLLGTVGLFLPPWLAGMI
smiles,measurement,setting,value
"C1=CCC(c2cccnc2)NC1 (racemic) [Anatabine, 1,2,3,6-tetrahydro-[2,3′]bipyridinyl]",inhibition of receptor activity,nAChR α4/β2 [1],inhibited receptor activity
same,agonist activity,nAChR α4/β2 [2],displays full agonist activity
same,MCH,"Hematology, day 15; anatabine 0.1 mg/kg, individual animals B1-B10 (M, F)",21.9 UUG and 21.8 UUG
same,MCH,"Hematology, day 15; [4]",20.3 UUG and 21 UUG and 22 UUG and 19.9 UUG
same,MCHC,"Hematology, day 15; [4]",34.2% and 34.3%
same,EOSINOPHIL,"Hematology, day 15; female, 0.1 mg/kg, group mean",0.0%
same,HCT,"Hematology, day 15; female, 0.1 mg/kg, group mean",46.4%
same,LYMPHOCYTE,"Hematology, day 15; female, 0.1 mg/kg, group mean",90.2%
same,MCHC,"Hematology, day 15; female, 0.1 mg/kg, group mean",33.7%
same,MCV,"Hematology, day 15; female, 0.1 mg/kg, group mean",60.0 fL
same,MONOCYTE,"Hematology, day 15; female, 0.1 mg/kg, group mean",1.8%
same,NEUTROPHIL SEG,"Hematology, day 15; female, 0.1 mg/kg, group mean",8.0%
same,PLATELET COUNT,"Hematology, day 15; female, 0.1 mg/kg, group mean",997300 µL⁻¹
same,RBC,"Hematology, day 15; female, 0.1 mg/kg, group mean",7.8e+06 µL⁻¹
same,RETICULOCYTE COUNT,"Hematology, day 15; female, 0.1 mg/kg, group mean",4.5%
same,WBC,"Hematology, day 15; female, 0.1 mg/kg, group mean",9300 µL⁻¹
same,EOSINOPHIL,"Hematology, day 15; female, 0.75 mg/kg, group mean",0.0%
same,HCT,"Hematology, day 15; female, 0.75 mg/kg, group mean",45.2%
same,HGB,"Hematology, day 15; female, 0.75 mg/kg, group mean",15.4 g/dL
same,LYMPHOCYTE,"Hematology, day 15; female, 0.75 mg/kg, group mean",90.6%
same,MCV,"Hematology, day 15; female, 0.75 mg/kg, group mean",59.8 fL
same,MONOCYTE,"Hematology, day 15; female, 0.75 mg/kg, group mean",0.8%
same,NEUTROPHIL SEG,"Hematology, day 15; female, 0.75 mg/kg, group mean",8.6%
same,PLATELET COUNT,"Hematology, day 15; female, 0.75 mg/kg, group mean",1.2696e+06 µL⁻¹
same,RBC,"Hematology, day 15; female, 0.75 mg/kg, group mean",7.5e+06 µL⁻¹
same,RETICULOCYTE COUNT,"Hematology, day 15; female, 0.75 mg/kg, group mean",3.3%
same,WBC,"Hematology, day 15; female, 0.75 mg/kg, group mean",10300 µL⁻¹
same,mean corpuscular volume (MCV) and mean corpuscular hemoglobin (MCH),"Hematology, day 15; females, anatabine […], nicotine 0.75 mg/kg single i.v.","small, but statistically significant decreases"
same,EOSINOPHIL,"Hematology, day 15; male, 0.1 mg/kg, group mean",0.2%
same,HCT,"Hematology, day 15; male, 0.1 mg/kg, group mean",47.1%
same,HGB,"Hematology, day 15; male, 0.1 mg/kg, group mean",15.8 g/dL
same,LYMPHOCYTE,"Hematology, day 15; male, 0.1 mg/kg, group mean",89.2%
same,MCV,"Hematology, day 15; male, 0.1 mg/kg, group mean",63.4 fL
same,MONOCYTE,"Hematology, day 15; male, 0.1 mg/kg, group mean",2.0%
same,NEUTROPHIL SEG,"Hematology, day 15; male, 0.1 mg/kg, group mean",8.6%
same,PLATELET COUNT,"Hematology, day 15; male, 0.1 mg/kg, group mean",1.2486e+06 µL⁻¹
same,RBC,"Hematology, day 15; male, 0.1 mg/kg, group mean",7.4e+06 µL⁻¹
same,RETICULOCYTE COUNT,"Hematology, day 15; male, 0.1 mg/kg, group mean",5.5%
same,WBC,"Hematology, day 15; male, 0.1 mg/kg, group mean",15600 µL⁻¹
same,EOSINOPHIL,"Hematology, day 15; male, 0.75 mg/kg, group mean",0.0%
same,HCT,"Hematology, day 15; male, 0.75 mg/kg, group mean",45.8%
same,LYMPHOCYTE,"Hematology, day 15; male, 0.75 mg/kg, group mean",88.8%
same,MCHC,"Hematology, day 15; male, 0.75 mg/kg, group mean",34.0%
same,MCV,"Hematology, day 15; male, 0.75 mg/kg, group mean",61.4 fL
same,MONOCYTE,"Hematology, day 15; male, 0.75 mg/kg, group mean",1.4%
same,NEUTROPHIL SEG,"Hematology, day 15; male, 0.75 mg/kg, group mean",9.8%
same,PLATELET COUNT,"Hematology, day 15; male, 0.75 mg/kg, group mean",1.3258e+06 µL⁻¹
same,RBC,"Hematology, day 15; male, 0.75 mg/kg, group mean",7.5e+06 µL⁻¹
same,RETICULOCYTE COUNT,"Hematology, day 15; male, 0.75 mg/kg, group mean",4.4%
same,WBC,"Hematology, day 15; male, 0.75 mg/kg, group mean",12100 µL⁻¹
same,Tissue Collection Weights: Brain,[3]; [5],1.91 g and 1.89 g (2×) and 1.75 g and 1.86 g
same,Tissue Collection Weights: Heart,[3]; [5],1.29 g and 1.12 g and 0.95 g and 1.05 g and 1.25 g
same,Tissue Collection Weights: Kidneys,[3]; [5],2.46 g and 2.02 g (2×) and 2.14 g and 2.25 g
same,Tissue Collection Weights: Liver,[3]; [5],11.54 g and 10.09 g and 9.94 g and 12.94 g and 9.67 g
same,Tissue Collection Weights: Lungs,[3]; [5],1.42 g and 1.39 g and 1.15 g and 1.52 g and 1.59 g
same,Tissue Collection Weights: Ovaries/uterus,[3]; [5],0.96 g and 1.79 g and 0.84 g and 1.42 g and 0.70 g
same,Tissue Collection Weights: Small intestine,[3]; [5],0.87 g and 0.71 g and 0.55 g and 0.49 g and 0.63 g
same,Tissue Collection Weights: Spleen,[3]; [5],0.79 g and 0.62 g and 0.51 g and 0.67 g and 0.65 g
same,Tissue Collection Weights: Thymus,[3]; [5],0.68 g and 0.59 g and 0.49 g and 0.71 g and 0.73 g
same,Tissue Collection Weights: Brain,[3]; [6],2.35 g and 2.16 g and 2.24 g and 2.11 g and 1.88 g
same,Tissue Collection Weights: Heart,[3]; [6],1.71 g and 1.59 g and 1.97 g and 1.60 g and 1.85 g
same,Tissue Collection Weights: Kidneys,[3]; [6],3.55 g and 3.33 g and 3.70 g and 3.27 g and 3.99 g
same,Tissue Collection Weights: Liver,[3]; [6],17.92 g and 15.45 g and 16.98 g and 16.32 g and 17.38 g
same,Tissue Collection Weights: Lungs,[3]; [6],2.31 g and 1.77 g and 2.08 g and 1.91 g and 1.83 g
same,Tissue Collection Weights: Prostate,[3]; [6],0.72 g and 0.49 g and 0.73 g and 0.53 g and 0.48 g
same,Tissue Collection Weights: Small intestine,[3]; [6],0.61 g and 0.96 g and 0.88 g and 0.50 g and 0.35 g
same,Tissue Collection Weights: Spleen,[3]; [6],0.91 g and 0.66 g and 0.82 g and 0.93 g and 0.76 g
same,Tissue Collection Weights: Testes,[3]; [6],3.69 g and 3.64 g and 3.14 g and 3.35 g and 3.29 g
same,Tissue Collection Weights: Thymus,[3]; [6],0.74 g (2×) and 0.76 g and 0.71 g and 0.81 g
same,Tissue Collection Weights: Brain,[3]; [7],1.99 g and 1.93 g and 1.73 g and 2.06 g and 1.81 g
same,Tissue Collection Weights: Heart,[3]; [7],1.09 g and 1.21 g and 1.23 g and 1.03 g and 0.99 g
same,Tissue Collection Weights: Kidneys,[3]; [7],2.08 g and 2.20 g and 2.68 g and 2.36 g
same,Tissue Collection Weights: Liver,[3]; [7],10.71 g and 8.65 g and 11.37 g and 10.19 g
same,Tissue Collection Weights: Lungs,[3]; [7],1.46 g and 1.39 g and 1.62 g and 1.30 g and 1.49 g

# Reference: patent US20120196899A1, “METHODS AND PRODUCTS FOR TREATING INFLAMMATION” (Rock Creek Pharmaceuticals, Inc., priority 2010, published 2012)
